In patent US20110288052A1, “NOVEL COMPOUNDS, PHARMACEUTICAL COMPOSITIONS CONTAINING SAME, AND METHODS OF USE FOR SAME” (priority 2008, published 2011):
≈ marks a conversion by molar mass, not a printed value.

Each compound was assayed on HCT116 cells (assay: XTT cytotoxicity assay, HCT116 (H)). Details: Homo sapiens, HCT-116.
Assay type: cell-based
Description: (§1) XTT Cytotoxicity Assay The XTT assay is a non-radioactive alternative for the [^51Cr] release cytotoxicity assay. XTT is a tetrazolium salt that is reduced to a formazan dye only by metabolically active, viable cells. The reduction of XTT is measured spectrophotometrically as OD490-OD650. To measure the cytotoxicity of specific compounds against cancer cells, 9×10^3 MCF-7 human breast cancer cells (shown in the tables as “(M)”), obtained from the American Type Culture Collection are plated per well in 96 well plates in DMEM medium with 10% fetal bovine serum, insulin, penicillin, and streptomycin. Following overnight culture at 37° C. and 5% CO2, the compounds to be tested, dissolved in DMSO, are added to the wells in 1 μl volume at the following concentrations: 80, 40, 20, 10, 5, 2.5, 1.25, and 0.625 μg/ml in triplicate. Additional concentrations are tested if required. 1 μl of DMSO is added to triplicate wells are the vehicle control. C75 is run at 40, 20, […], and 5 μg/ml in triplicate as positive controls. After 72 hours of incubation, cells are incubated for 4 hours with the XTT reagent as per manufacturer's instructions (Cell Proliferation Kit II (XTT) Roche). Plates are read at OD490 and OD650 on a Molecular Devices SpectraMax Plus Spectrophotometer. Three wells containing the XTT reagent without cells serve as the plate blank. XTT data are reported as OD490-OD650. Averages and standard error of the mean are computed using SOFTmax Pro software (Molecular Dynamics). The IC50 for the compounds is defined as the concentration of drug leading to a 50% reduction in OD490-OD650 compared to controls. The OD490-OD650 are computed by the SOFTmax PRO software (Molecular Devices) for each compound concentration. IC50 is calculated by linear regression, plotting the FAS activity as percent of control versus drug concentrations. Linear regression, best-fit line, r^2, and 95% confidence intervals are determined using Prism Version 3.0 (Graph Pad Software). The test was also run against OVCAR3 cells (“OV”), and HCT116 cells (“H”).

| Compound | IC50 [µg/mL] |
| --- | --- |
| CCCCCCCCC1(C)SC(=O)C=C1OCC(=O)Nc1ccc(Cl)cc1 (stereo not drawn) | 5.9 ± 2.7 (≈ 14.4 µM) |
| CCCCCCCCC1(C)SC(=O)C=C1OCC(=O)Nc1ccc(OC)cc1 (stereo not drawn) | 15.6 (≈ 38.5 µM) |
| CCCCCCCCOc1ccc(NC(=O)COC2=CC(=O)SC2(C)CCCCCCCC)cc1 (stereo not drawn) | > 80 |
| CCCCCCCCC1(C)SC(=O)C=C1OCC(=O)Nc1ccc(-c2cccs2)cc1 (stereo not drawn) | > 80 |
| CCCCCCCCC1(C)SC(=O)C=C1OCC(=O)Nc1ccc(Oc2ccc(Cl)cc2)cc1 (stereo not drawn) | 6.3 (≈ 12.5 µM) |
| CCCCCCCCC1(C)SC(=O)C=C1OCC(=O)Nc1ccc(C(F)(F)F)cc1 (stereo not drawn) | 4.8 (≈ 10.8 µM) |
| CCCCCCCCC1(C)SC(=O)C=C1OCC(=O)Nc1ccc(OC(F)(F)F)cc1 (stereo not drawn) | 3.5 (≈ 7.62 µM) |
| CCCCCCCCC1(C)SC(=O)C=C1OCC(=O)Nc1ccc2c(c1)OCO2 (stereo not drawn) | 14.8 (≈ 35.3 µM) |
| CCCCCCCCC1(C)SC(=O)C=C1OCC(=O)Nc1ccccc1N1CCCCC1 (stereo not drawn) | 13.1 (≈ 28.6 µM) |

Each compound was assayed on Enterococcus faecalis (ATCC # 29212) (assay: Broth microdilution antimicrobial assay, E. faecalis). Details: Enterococcus faecalis, ATCC29212; Trypticase Soy Broth; read-out: EF/Tsoy (MIC).
Assay type: cell-based
Description: Antimicrobial Properties A broth microdilution assay is used to assess the antimicrobial activity of the compounds. Compounds are tested at twofold serial dilutions, and the concentration that inhibits visible growth (OD600 at 10% of control) is defined as the MIC. Microorganisms tested include Staphylococcus aureus (ATCC # 29213), Enterococcus faecalis (ATCC # 29212), Pseudomonas aerpginosa (ATCC # 27853), and Escherichia coli (ATCC # 25922). The assay is performed in two growth media, Mueller Hinton Broth and Trypticase Soy Broth.
A blood (Tsoy/5% sheep blood) agar plate is inoculated from frozen stocks maintained in T soy broth containing 10% glycerol and incubated overnight at 37° C. Colonies are suspended in sterile broth so that the turbidity matches the turbidity of a 0.5 McFarland standard. The inoculum is diluted 1:10 in sterile broth (Mueller Hinton or Trypticase soy) and 195 μl is dispensed per well of a 96-well plate. The compounds to be tested, dissolved in DMSO, are added to the wells in 5 μl volume at the following concentrations: 25, 12.5, 6.25, 3.125, 1.56 and 0.78 μg/ml in duplicate. Additional concentrations are tested if required. 5 μl of DMSO added to duplicate wells are the vehicle control. Serial dilutions of positive control compounds, vancomycin (E. faecalis and S. aureus) and tobramycin (E. coli and P. aerpginosa), are included in each run.
After 24 hours of incubation at 37° C., plates are read at OD600 on a Molecular Devices SpectraMax Plus Spectrophotometer. Average OD600 values are computed using SOFTmax Pro Software (Molecular Devices) and MIC values are determined by linear regression analysis using Prism version 3.02 (Graph Pad Software, San Diego). The MIC is defined as the concentration of compound required to produce an OD600 reading equivalent to 10% of the vehicle control reading.

| Compound | MIC [µg/mL] |
| --- | --- |
| CCCCCCCCC1(C)SC(=O)C=C1OCC(=O)Nc1ccc(Cl)cc1 (stereo not drawn) | 44 (≈ 107 µM) |

Same assay, conditions: Mueller Hinton Broth

| Compound | EF/MH (MIC) |
| --- | --- |
| CCCCCCCCC1(C)SC(=O)C=C1OCC(=O)Nc1ccc(Cl)cc1 (stereo not drawn) | Neg |
| CCCCCCCCC1(C)SC(=O)C=C1OCC(=O)Nc1ccc(OC)cc1 (stereo not drawn) | Neg |
| CCCCCCCCOc1ccc(NC(=O)COC2=CC(=O)SC2(C)CCCCCCCC)cc1 (stereo not drawn) | Neg |
| CCCCCCCCC1(C)SC(=O)C=C1OCC(=O)Nc1ccc(-c2cccs2)cc1 (stereo not drawn) | Neg |
| CCCCCCCCC1(C)SC(=O)C=C1OCC(=O)Nc1ccc(Oc2ccc(Cl)cc2)cc1 (stereo not drawn) | Neg |
| CCCCCCCCC1(C)SC(=O)C=C1OCC(=O)Nc1ccc(C(F)(F)F)cc1 (stereo not drawn) | Neg |
| CCCCCCCCC1(C)SC(=O)C=C1OCC(=O)Nc1ccc(OC(F)(F)F)cc1 (stereo not drawn) | Neg |
| CCCCCCCCC1(C)SC(=O)C=C1OCC(=O)Nc1ccc2c(c1)OCO2 (stereo not drawn) | Neg |
| CCCCCCCCC1(C)SC(=O)C=C1OCC(=O)Nc1ccccc1N1CCCCC1 (stereo not drawn) | Neg |

Same assay, conditions: Trypticase Soy Broth

| Compound | EF/Tsoy (MIC) |
| --- | --- |
| CCCCCCCCC1(C)SC(=O)C=C1OCC(=O)Nc1ccc(OC)cc1 (stereo not drawn) | Neg |
| CCCCCCCCOc1ccc(NC(=O)COC2=CC(=O)SC2(C)CCCCCCCC)cc1 (stereo not drawn) | Neg |
| CCCCCCCCC1(C)SC(=O)C=C1OCC(=O)Nc1ccc(-c2cccs2)cc1 (stereo not drawn) | Neg |
| CCCCCCCCC1(C)SC(=O)C=C1OCC(=O)Nc1ccc(Oc2ccc(Cl)cc2)cc1 (stereo not drawn) | Neg |
| CCCCCCCCC1(C)SC(=O)C=C1OCC(=O)Nc1ccc(C(F)(F)F)cc1 (stereo not drawn) | Neg |
| CCCCCCCCC1(C)SC(=O)C=C1OCC(=O)Nc1ccc(OC(F)(F)F)cc1 (stereo not drawn) | Neg |
| CCCCCCCCC1(C)SC(=O)C=C1OCC(=O)Nc1ccc2c(c1)OCO2 (stereo not drawn) | Neg |
| CCCCCCCCC1(C)SC(=O)C=C1OCC(=O)Nc1ccccc1N1CCCCC1 (stereo not drawn) | Neg |

What follows are compounds tested on OVCAR3 cells (assay: XTT cytotoxicity assay, OVCAR3 (OV)). Details: Homo sapiens, OVCAR-3.
Assay type: cell-based
Description: as §1

| Compound | IC50 [µg/mL] |
| --- | --- |
| CCCCCCCCC1(C)SC(=O)C=C1OCC(=O)Nc1ccc(Cl)cc1 (stereo not drawn) | 9.2 ± 5 (≈ 22.4 µM) |
| CCCCCCCCC1(C)SC(=O)C=C1OCC(=O)Nc1ccc(OC)cc1 (stereo not drawn) | 17.8 (≈ 43.9 µM) |
| CCCCCCCCOc1ccc(NC(=O)COC2=CC(=O)SC2(C)CCCCCCCC)cc1 (stereo not drawn) | 67 (≈ 133 µM) |
| CCCCCCCCC1(C)SC(=O)C=C1OCC(=O)Nc1ccc(-c2cccs2)cc1 (stereo not drawn) | > 80 |
| CCCCCCCCC1(C)SC(=O)C=C1OCC(=O)Nc1ccc(Oc2ccc(Cl)cc2)cc1 (stereo not drawn) | 5 (≈ 9.96 µM) |
| CCCCCCCCC1(C)SC(=O)C=C1OCC(=O)Nc1ccc(C(F)(F)F)cc1 (stereo not drawn) | 4 (≈ 9.02 µM) |
| CCCCCCCCC1(C)SC(=O)C=C1OCC(=O)Nc1ccc(OC(F)(F)F)cc1 (stereo not drawn) | 3.3 (≈ 7.18 µM) |
| CCCCCCCCC1(C)SC(=O)C=C1OCC(=O)Nc1ccc2c(c1)OCO2 (stereo not drawn) | 9.3 (≈ 22.2 µM) |
| CCCCCCCCC1(C)SC(=O)C=C1OCC(=O)Nc1ccccc1N1CCCCC1 (stereo not drawn) | 15.5 (≈ 33.8 µM) |

These compounds were tested on MCF-7 human breast cancer cells (assay: XTT cytotoxicity assay, MCF-7 (M)). Details: MCF7, MCF-7, 72 hours.
Assay type: cell-based
Description: XTT Cytotoxicity Assay The XTT assay is a non-radioactive alternative for the [^51Cr] release cytotoxicity assay. XTT is a tetrazolium salt that is reduced to a formazan dye only by metabolically active, viable cells. The reduction of XTT is measured spectrophotometrically as OD490-OD650. To measure the cytotoxicity of specific compounds against cancer cells, 9×10^3 MCF-7 human breast cancer cells (shown in the tables as “(M)”), obtained from the American Type Culture Collection are plated per well in 96 well plates in DMEM medium with 10% fetal bovine serum, insulin, penicillin, and streptomycin. Following overnight culture at 37° C. and 5% CO2, the compounds to be tested, dissolved in DMSO, are added to the wells in 1 μl volume at the following concentrations: 80, 40, 20, 10, 5, 2.5, 1.25, and 0.625 μg/ml in triplicate. Additional concentrations are tested if required. 1 μl of DMSO is added to triplicate wells are the vehicle control. C75 is run at 40, 20, […], and 5 μg/ml in triplicate as positive controls. After 72 hours of incubation, cells are incubated for 4 hours with the XTT reagent as per manufacturer's instructions (Cell Proliferation Kit II (XTT) Roche). Plates are read at OD490 and OD650 on a Molecular Devices SpectraMax Plus Spectrophotometer. Three wells containing the XTT reagent without cells serve as the plate blank. XTT data are reported as OD490-OD650. Averages and standard error of the mean are computed using SOFTmax Pro software (Molecular Dynamics). The IC50 for the compounds is defined as the concentration of drug leading to a 50% reduction in OD490-OD650 compared to controls. The OD490-OD650 are computed by the SOFTmax PRO software (Molecular Devices) for each compound concentration. IC50 is calculated by linear regression, plotting the FAS activity as percent of control versus drug concentrations. Linear regression, best-fit line, r^2, and 95% confidence intervals are determined using Prism Version 3.0 (Graph Pad Software).

| Compound | IC50 [µg/mL] |
| --- | --- |
| CCCCCCCCC1(C)SC(=O)C=C1OCC(=O)Nc1ccc(Cl)cc1 (stereo not drawn) | 5.2 ± 2 (≈ 12.7 µM) |
| CCCCCCCCC1(C)SC(=O)C=C1OCC(=O)Nc1ccc(OC)cc1 (stereo not drawn) | 9.7 (≈ 23.9 µM) |
| CCCCCCCCOc1ccc(NC(=O)COC2=CC(=O)SC2(C)CCCCCCCC)cc1 (stereo not drawn) | > 80 |
| CCCCCCCCC1(C)SC(=O)C=C1OCC(=O)Nc1ccc(-c2cccs2)cc1 (stereo not drawn) | > 80 |
| CCCCCCCCC1(C)SC(=O)C=C1OCC(=O)Nc1ccc(Oc2ccc(Cl)cc2)cc1 (stereo not drawn) | 3.1 (≈ 6.17 µM) |
| CCCCCCCCC1(C)SC(=O)C=C1OCC(=O)Nc1ccc(C(F)(F)F)cc1 (stereo not drawn) | 2.2 (≈ 4.96 µM) |
| CCCCCCCCC1(C)SC(=O)C=C1OCC(=O)Nc1ccc(OC(F)(F)F)cc1 (stereo not drawn) | 1.8 (≈ 3.92 µM) |
| CCCCCCCCC1(C)SC(=O)C=C1OCC(=O)Nc1ccc2c(c1)OCO2 (stereo not drawn) | 8.2 (≈ 19.5 µM) |
| CCCCCCCCC1(C)SC(=O)C=C1OCC(=O)Nc1ccccc1N1CCCCC1 (stereo not drawn) | 18.6 (≈ 40.6 µM) |
